Experimental data taken from paper PMC11653428, “5‐methyl‐2‐carboxamidepyrrole‐based novel dual mPGES‐1/sEH inhibitors as promising anticancer candidates” (Archiv Der Pharmazie, 2024).
Like-named read-outs stand apart in the source and are kept apart here.

Legend:
mPGES-1 = biological target: T1, mPGES-1 (Homo sapiens, UniProt O14684); experiment: Cell-free mPGES-1 activity assay (microsomes of IL-1β-stimulated A549 cells, PGE2 formation by RP-HPLC); assay type: biochemical; settings: for Residual activity of mPGES-1, mean ± SD (%) / remaining activity at 10 µM: compound at 10 μM, percentage of vehicle control (DMSO) = 100%, n = 3; for Residual activity of mPGES-1, mean ± SD (%): 10 µM; for remaining activity at 10 µM: read-out: Residual activity of mPGES-1, mean ± SD (%); for IC50: cell-free, A549 microsomes, read-out: IC50 (µM), mean ± SD for mPGES-1
T1 construct: endogenous in cells; host or cells: A549 cells stimulated with IL-1β; microsomal fraction
T1 sequence (O14684 1-152): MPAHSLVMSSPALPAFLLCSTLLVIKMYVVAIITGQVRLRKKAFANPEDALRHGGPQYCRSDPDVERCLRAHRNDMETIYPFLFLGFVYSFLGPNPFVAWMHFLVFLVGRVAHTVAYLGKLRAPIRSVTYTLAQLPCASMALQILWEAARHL
Experimental: Compounds 1a–f and 2a–d were submitted to a cell‐free assay mPGES‐1^[ [52] ^] to validate the inhibitory activity predicted in silico.
Microsomes of A549 cells containing mPGES‐1 were used as enzyme sources. In brief, A549 cells were stimulated with interleukin‐1β (IL‐1β) (2 ng/mL) for 48 h, harvested, and sonicated. The lysate was first centrifugated at 10,000g (10 min), and then at 174,000g for (1 h) at 4°C. The pellet (microsomal fraction) was resuspended in 1 ml homogenization buffer (0.1 M potassium phosphate buffer, pH = 7.4, 1 mM phenylmethanesulfonyl fluoride, 60 µg/mL soybean trypsin inhibitor, 1 µg/mL leupeptin, 2.5 mM GSH, and 250 mM sucrose), the total protein concentration was determined, and microsomes were diluted in potassium phosphate buffer (0.1 M, pH 7.4) containing GSH (2.5 mM) and seeded in a 96‐well plate. […] After 1 min, the addition of 100 µL of a stop solution (40 mM FeCl3, 80 mM citric acid, and 10 µM 11β‐PGE2) blocked the reaction. PGE2 and 11β‐PGE2 were extracted by solid‐phase extraction, and PGE2 formation was quantified by RP‐HPLC.^[ [52] ^]
mPGES-1 activity assay: Microsomes from A549 cells, which contain the enzyme mPGES-1, were used in an experiment to study the production of PGE2. The A549 cells were first stimulated with IL-1β for 48 hours, then harvested and broken down by sonication. The resulting cell lysate was subjected to two rounds of centrifugation to isolate the microsomal fraction. The microsomes were diluted and placed in a 96-well plate, where they were preincubated with various compounds or a control solution. The production of PGE2 was triggered by adding a substrate, and the reaction was stopped after one minute. PGE2 was then extracted and quantified using HPLC.

human recombinant sEH = biological target: T2, human recombinant sEH (Homo sapiens, UniProt P34913); experiment: Cell-free sEH activity assay (PHOME fluorescence, inhibitor screening kit); assay type: biochemical; settings: for remaining activity at 10 µM: compound at 10 μM, percentage of vehicle control (DMSO) = 100%, n = 3, read-out: Residual activity of sEH, mean ± SD (%); for IC50: threefold dilutions from 30,000 to 1.52 nM, read-out: IC50 (µM), mean ± SD for sEH
T2 construct: purchased 10011671
T2 sequence (P34913 1-555): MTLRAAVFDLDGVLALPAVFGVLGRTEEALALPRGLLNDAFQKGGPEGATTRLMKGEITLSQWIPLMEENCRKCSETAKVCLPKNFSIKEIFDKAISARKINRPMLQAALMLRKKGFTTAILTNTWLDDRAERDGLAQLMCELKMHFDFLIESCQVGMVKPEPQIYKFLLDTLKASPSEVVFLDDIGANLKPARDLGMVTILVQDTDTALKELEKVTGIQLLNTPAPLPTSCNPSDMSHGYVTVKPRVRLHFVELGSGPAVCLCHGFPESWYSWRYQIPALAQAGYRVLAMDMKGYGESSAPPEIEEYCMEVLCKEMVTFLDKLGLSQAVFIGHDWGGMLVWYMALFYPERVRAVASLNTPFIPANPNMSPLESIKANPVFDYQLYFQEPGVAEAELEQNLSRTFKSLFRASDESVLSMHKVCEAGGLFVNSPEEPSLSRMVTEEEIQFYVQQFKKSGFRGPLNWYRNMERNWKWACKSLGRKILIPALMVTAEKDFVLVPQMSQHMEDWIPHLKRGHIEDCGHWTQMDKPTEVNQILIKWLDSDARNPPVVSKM
From the text: When the epoxide moiety of PHOME is hydrolyzed by the epoxide hydrolase, an intramolecular cyclization occurs, which results in the release of a cyanohydrin under basic conditions. The cyanohydrin quickly decomposes into cyanide ion and the highly fluorescent 6‐Methoxy‐2‐naphthaldehyde, which can be analyzed. The signal was detected (λex 330 nm, λem 465 nm) on an EnSpire™ Multimode Plate Reader (PerkinElmer).
The reaction was initiated by adding a small amount of a no-fluorescent substrate called PHOME. When sEH hydrolyzes PHOME, it triggers a chemical reaction that ultimately produces a fluorescent compound. The fluorescence emitted by this compound was measured using a plate reader, which allowed the researchers to analyze the enzyme activity and determine the effectiveness of the test compounds in inhibiting sEH.

HaCaT cells = experiment: Cell survival index (MTT assay and cell count) in HaCaT keratinocytes; assay type: cell-based, human; settings: 48 h of incubation, cell survival index, n = 24, healthy control cells, read-out: IC50 ± SD (µM) HaCat
Experimental: HaCaT cells, human immortalized keratinocytes (kindly provided by Dr. Valeria Cicatiello at Italian National Research Council (CNR), Institute of Genetics and Biophysics), were maintained in a humidified 5% CO2 atmosphere at 37°C and grown in DMEM (Invitrogen) supplemented with 10% fetal bovine serum (FBS, Cambrex), L‐glutamine (2 mM), penicillin (100 units/mL, Sigma‐Aldrich), and streptomycin (100 μg/mL). Cells were seeded at a density between 2 and 4 × 10^4 cells/cm^2 and cultured to about 80%–90% confluence.^[ [66] ^] HaCaT cells provide ideal in vitro cell systems to study biocompatibility and toxicological cellular responses.
(§1) Bioactivity and cell responses to in vitro treatment with 1f, 2b, 2c, and 2d compounds were investigated through the estimation of a “cell survival index,” arising from the combination of cell viability evaluation with cell counting. The cell survival index is calculated as the arithmetic mean between the percentage values derived from the 3‐(4,5‐dimethyl‐2‐thiazolyl) 2,5‐diphenyl‐2‐H‐tetrazolium bromide (MTT) assay and the automated cell count.^[ [67] ^] HCT‐116 and HaCaT were inoculated in 96‐microwell culture plates at a density of 10^4 cells/well and allowed to grow for 24 h. Subsequently, the culture medium was exchanged with fresh medium, and cells were exposed to different concentrations (0→50 µM) of compounds 1f, 2b−2d under investigation for an additional 48 h. After the treatments, the medium was removed, and the cells were incubated with 20 μL/well of an MTT solution (5 mg/mL MTT, Sigma) for 1 h in a humidified 5% CO2 incubator at 37°C. The incubation was stopped by removing the MTT solution and by adding 100 μL/well of DMSO to solubilize the obtained formazan. Finally, the absorbance was monitored at 550 nm using a microplate reader (iMark microplate reader, Bio‐Rad). Cell number was determined by TC20 automated cell counter (Bio‐Rad), which uses disposable slides, TC20 trypan blue dye (0.4% trypan blue dye w/v in 0.81% sodium chloride and 0.06% potassium phosphate dibasic solution), and a CCD camera to count cells based on the analyses of captured images. The medium was removed, and the cells were collected. Ten microliters of cell suspension, mixed with 0.4% trypan blue solution at a 1:1 ratio, were loaded into the chambers of disposable slides. The results are expressed in terms of total cell count (cell number/mL). […] Total counts and live/dead ratio from random samples for each cell line were subjected to comparisons with manual hemocytometers in control experiments. […] Concentration‐effect curves were obtained with nonlinear regression using GraphPad Prism 8.0 curve‐fitting software.^[ [67] ^]
(§2) Experiments on HTC-116 and HaCat cell lines: The bioactivity and cellular responses to treatment 2d were evaluated by calculating a "cell survival index." This index combines results from cell viability tests (using the MTT assay) and cell counting. HCT-116 and HaCaT cells were grown in 96-well plates for 24 hours, after which they were treated with various concentrations of the compounds for an additional 48 hours. After treatment, cell viability was assessed by incubating the cells with MTT solution, which results in the formation of formazan crystals. These crystals were dissolved in DMSO, and the absorbance was measured to determine cell viability.

HCT-116 cells = experiment: Cell survival index (MTT assay and cell count) in HCT-116 CRC cells; assay type: cell-based, human; settings: 48 h of incubation, cell survival index, n = 24, read-out: IC50 ± SD (µM) HCT-116
Experimental: HCT‐116 cells (CCL‐247 ™), an epithelial‐like carcinoma cell line isolated from the colon of an adult with colon cancer, were purchased from ATCC and cultured in Roswell Park Memorial Institute (Invitrogen) supplemented with 10% fetal bovine serum (FBS, Cambrex), L‐glutamine (2 mM, Sigma), penicillin (100 units/mL, Sigma), and streptomycin (100 μg/mL, Sigma), and cultured in a humidified 5% carbon dioxide atmosphere at 37°C, according to ATCC recommendations.^[ [58] ^]
as §1, §2

[1] = system: human recombinant mPGES-1; parameters: method as in earlier work; settings: cited from earlier work
mPGES-1 from A549 cells = system: mPGES-1 from A549 cells; parameters: method as in earlier work; settings: cited from earlier work

| SMILES | remaining activity at 10 µM (mPGES-1) | remaining activity at 10 µM (human recombinant sEH) | IC50 (HaCaT cells; Homo sapiens, HaCaT) | IC50 (HCT-116 cells; Homo sapiens, HCT-116) | IC50 (human recombinant sEH) | further results |
| --- | --- | --- | --- | --- | --- | --- |
| Cc1[nH]c(C(=O)Nc2ccc3ccccc3n2)cc1C(=O)c1ccccc1 [Compound 1b, 4‐benzoyl‐5‐methyl‐N‐(quinolin‐2‐yl)‐1H‐pyrrole‐2‐carboxamide] | ~55% | 71.8 ± 4.7% |  |  |  | Residual activity of mPGES-1, mean ± SD (%) (mPGES-1): 55.6 ± 2.9% |
| Cc1[nH]c(C(=O)Nc2cc(N)cc(C(F)(F)F)c2)cc1C(=O)c1ccccc1 [Compound 1f, N‐[3‐Amino‐5‐(trifluoromethyl)phenyl]‐4‐benzoyl‐5‐methyl‐1H‐pyrrole‐2‐carboxamide] | ~50% | 36.1 ± 5.1% | 37 ± 3 µM | 25 ± 2 µM | 5 ± 0.9 µM | Residual activity of mPGES-1, mean ± SD (%) (mPGES-1): 47.6 ±4.4% |
| Cc1[nH]c(C(=O)Nc2ccc(Cl)c(CO)c2)cc1C(=O)c1ccc2ccccc2c1 [Compound 2d, 4‐(2‐Naphthoyl)‐N‐[4‐chloro‐3‐(hydroxymethyl)phenyl]‐5‐methyl‐1H‐pyrrole‐2‐carboxamide] | 21.5 ± 2.9% | 41.6 ± 3.1% | 22 ± 2 µM | 39 ± 2 µM | 7.6 ± 1 µM | IC50 (mPGES-1): 4.5 ± 1.3 µM |
| Cc1[nH]c(C(=O)Nc2ccc(C(C)O)cc2)cc1C(=O)c1ccccc1 (racemic) [Compound 1d, (±) 4‐Benzoyl‐N‐[4‐(1‐hydroxyethyl)phenyl]‐5‐methyl‐1H‐pyrrole‐2‐carboxamide] |  | 93.4 ± 0.6% |  |  |  |  |
| N.N.[Cl][Pt][Cl] [Cisplatin, reference compound] |  |  |  |  |  | IC50 (HaCaT cells): 20 ± 3 µM; IC50 (HCT-116 cells): 9 ± 3 µM |
| Cc1ccc(NC(=O)c2cc(C(=O)c3ccccc3)c(C)[nH]2)cc1C [Compound 1c, 4‐Benzoyl‐N‐(3,4‐dimethylphenyl)‐5‐methyl‐1H‐pyrrole‐2‐carboxamide] | 65.5 ± 3.7% | 47.7 ± 2.9% |  |  |  |  |
| CCc1ccccc1NC(=O)c1cc(C(=O)c2ccc3ccccc3c2)c(C)[nH]1 [Compound 2a, 4‐(2‐Naphthoyl)‐N‐(2‐ethylphenyl)‐5‐methyl‐1H‐pyrrole‐2‐carboxamide] | 83.4 ± 4% | 74.3 ± 3.6% |  |  |  |  |
| Cc1ccc(NC(=O)c2cc(C(=O)c3ccc4ccccc4c3)c(C)[nH]2)cc1O [Compound 2b, 4‐(2‐Naphthoyl)‐N‐(3‐hydroxy‐4‐methylphenyl)‐5‐methyl‐1H‐pyrrole‐2‐carboxamide] | 17.6 ± 0.3% | 21.7 ± 4.2% | 31 ± 4 µM | 42 ± 1 µM | 1.5 ± 0.2 µM | IC50 (mPGES-1): 3.3 ± 0.5 µM |
| CCCCCCCCCCCC(=O)c1c(C)c(CCC(=O)O)n(C)c1C [I, 3-(4-dodecanoyl-1,3,5-trimethyl-1H-pyrrol-2-yl)propanoic acid] |  |  |  |  |  | Inhibition of human recombinant mPGES-1 at 1μM [%] [1]: 54±8 (n=7) %; Inhibition of mPGES-1 from A549 cells at 3.3 μM [%] (mPGES-1 from A549 cells): 74±8 (n=5) % |
| COc1ccc(NC(=O)c2cc(C(=O)c3ccc4ccccc4c3)c(C)[nH]2)cc1O [Compound 2c, 4‐(2‐Naphthoyl)‐N‐(3‐hydroxy‐4‐methoxyphenyl)‐5‐methyl‐1H‐pyrrole‐2‐carboxamide] | 30.4 ± 1.9% | 47.2 ± 2.5% | 43 ± 2 µM | 44 ± 3 µM | 6.3 ± 1.1 µM | IC50 (mPGES-1): 4 ± 1.1 µM |
| Cc1[nH]c(C(=O)Nc2cc(Cl)cc(Cl)c2)cc1C(=O)c1ccccc1 [Compound 1e, 4‐benzoyl‐N‐(3,5‐dichlorophenyl)‐5‐methyl‐1H‐pyrrole‐2‐carboxamide] | 73.4 ± 5.2% | 86.9 ± 4.8% |  |  |  |  |
